Results as given in publication PMC8636556, “Cloning, expression, purification and characterization of chitin deacetylase extremozyme from halophilic Bacillus aryabhattai B8W22” (3 Biotech, 2021).

Target: T1, BaCDA (Priestia aryabhattai, UniProt A0A7W3NGR0)
T1 construct: gene HNP21_005748
Assay: biochemical
Settings: read-out: Relative activity (%) / Ethylene glycol chitin

T1 sequence (A0A7W3NGR0 1-254): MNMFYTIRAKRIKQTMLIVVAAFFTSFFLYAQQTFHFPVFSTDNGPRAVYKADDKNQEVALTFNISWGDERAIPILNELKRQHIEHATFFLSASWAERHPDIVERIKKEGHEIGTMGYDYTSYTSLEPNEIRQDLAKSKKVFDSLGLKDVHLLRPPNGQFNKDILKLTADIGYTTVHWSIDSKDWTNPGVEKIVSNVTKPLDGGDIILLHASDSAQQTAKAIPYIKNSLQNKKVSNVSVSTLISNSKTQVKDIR

Structure (SMILES): CC(=O)O [acetate]
- activity at 10000 µM: 49.9 ± 3.89%
